The values below are quoted from earlier work in patent US20210346497A1, “Methods of Treating Cancer” (Tesaro, Inc., priority 2018, published 2021).

What is called IC50 is the concentration needed to halve the response being measured.

The test system of data set [1] is PARP activity in various cell lines.
The subject of data set [2] is normal human cells.
Data set [3] relates to MDA-MB-436, CAPAN-1, GRANTA-519, OVCAR3, HT29, DLD-1, patient derived Ewing's sarcoma and TNBC xenograft models. The settings on record: BRCA-1 mutant breast, BRCA-2 mutant pancreatic, ATM-mutant mantle cell lymphoma, serous ovarian, colorectal, TNBC xenografts in mice.
The test system of data set [4] is tumor cell.
The test system of data set [5] is cancer cell lines silenced for BRCA-1 or BRCA-2, or carrying BRCA-1 or BRCA-2 mutations.

Structures are written as SMILES.

Regarding `Cc1ccc(S(=O)(=O)O)cc1.NC(=O)c1cccc2cn(-c3ccc([C@@H]4CCCNC4)cc3)nc12` [Niraparib, (3S)-3-[4-{7-(aminocarbonyl)-2H-indazol-2-yl}phenyl]piperidine], the IC50 in data set [1] (read-out: IC50 of PARP activity in cells, PARP activity stimulated by DNA damage caused by hydrogen peroxide) was approximately 4 nM. The IC90 in data set [1] (read-out: inhibitory concentration at 90% of control (IC90) of PARP activity in cells, PARP activity stimulated by DNA damage caused by hydrogen peroxide) is approximately 50 nM. Moreover, the “activity on normal human cells” value in data set [2] was “weak activity”. The “antitumor activity in vivo” value in data set [3] is “strong antitumor activity”. In addition, in data set [4], the cell cycle arrest result is given as “arrest in the G2/M phase of the cell cycle”. The anti-proliferative activity result in data set [5] (BRCA-1/BRCA-2 silenced or mutant cancer cell lines compared to wild type counterparts) is recorded as “selective anti-proliferative activity”. Moreover, in data set [5] (BRCA-defective cells), the “consequence on cell cycle of BRCA-defective cells” value is “cell cycle arrest in G2/M followed by apoptosis”.
